# Experimental data: patent US12569506B2, “Methods of treating osteonecrosis with LLP2A-bisphosphonate compounds” (The Regents of the University of California, priority 2016, dated 2026)
# “Also recorded” adds a separate entry of the source.
# System: dexamethasone-treated mice
# Assay: Histological evaluation (H&E) of femoral epiphyses, 90 day model
# Type: in vivo, BALB/c mice
# Method: FIG. 9A-9F. Histological evaluation of femurs from placebo- or dexamethasone-treated mice. Mice were treated with placebo (PL) or dexamethasone alone (Dex) as described above for FIG. 7. All mice were euthanized at day 90. Right and left distal femurs were fixed in 10% neutral buffer formalin and decalcified. The specimens were dehydrated, embedded in paraffin, cut into 5 micron sections and H&E stained. The sections were scored by two experienced histologists and then a consensus reading was performed by two additional histologists. FIG. 9A-9B: 4× (A) and 20× (B) magnifications of representative proximal femoral epiphyses in mice treated with placebo. (C) 4× magnification of a representative proximal femoral epiphyses in mice treated with dexamethasone (Dex) alone. FIGS. 9D, 9E, and 9F: 20× magnifications of representative proximal femoral epiphyses in mice treated with dexamethasone (Dex) alone.
# FIG. 11A-11F. Histological evaluation of femurs from LLP2A-Ale-treated mice. Mice were treated with Dex+250 μg/kg LLP2A-Ale as described above for FIG. 7. All mice were euthanized at day 90. Right and left distal femurs were fixed in 10% neutral buffer formalin and decalcified. The specimens were dehydrated, embedded in paraffin, cut into 5 micron sections and H&E stained. The sections were scored by two experienced histologists and then a consensus reading was performed by two additional histologists. (A, D): 4× magnifications of representative proximal femoral epiphyses in mice treated with Dex+LLP2A-Ale. (B, C, E, F): 20× magnifications of representative proximal femoral epiphyses in mice treated with Dex+LLP2A-Ale.
# Both the right and left distal femurs were fixed in 10% neutral buffered formalin and were shaken for 3 days, then decalcified in 5% EDTA until the bones were fully decalcified. The specimens were then processed in ascending concentrations of ethanol and embedded in paraffin. Tissue sections were cut into 5 microns sections, stained with hematoxylin and eosin and evaluated for the presence of osteonecrosis by bright field microscopy at 20× magnification. Experimental methods are also described in Mohan et al., Calif Tissue Int (2016) doi:10.1007/s00223-016-0195-6, which is incorporated herein by reference in its entirety for all purposes. Osteonecrosis was detected using modified criteria reported by Yang el al., (a mouse model for glucocorticoid-induced osteonecrosis: Effect of a steroid holiday. J Orthop Res. 2009; 27:169-75) which defines osteonecrosis as requiring all of the following changes: (1) empty lacunae, (2) pyknotic osteocyte nuclei in areas of empty lacunae and necrosis of adjacent bone marrow, (3) presence of excessive fat cells in the bone marrow, (4) cartilage degradation and (5) presence of fibrin thrombi in the blood vessels. In addition, trabecular bone volume, adipose volume, sinusoid volume and osteoblast surface at the distal femoral epiphyses were measured. Empty lacunae density was calculated by empty lacunae/total osteocytes within the entire distal femoral epiphysis region for each sample. Each section was scored by two experienced histologists, then a consensus reading was performed by two additional experienced histologists.
structure (smiles),measurement,setting,value
Cc1ccccc1NC(=O)Nc1ccc(CC(=O)N[C@@H](CCCCNC(=O)/C=C/c2cccnc2)C(=O)N[C@@H](CCCC(=O)O)C(=O)NC2(C(=O)NCCOCCOCCNC(=O)CCC(=O)NCCOCCOCCNC(=O)CCC(=O)N[C@@H](CCCCNC(=O)[C@H](N)CSC3CC(=O)N(CC4CCC(C(=O)NCCCC(O)(P(=O)(O)O)P(=O)(O)O)CC4)C3=O)C(N)=O)CCCCC2)cc1 (stereo partly shown) [LLP2A-Ale],Sinusoid formation (histological sections of epiphyses),"Dex+250 μg/kg LLP2A-Ale, day 90, H&E (FIG. 11)",increased sinusoid formation; also recorded: increase in sinusoid formation
same,Amount of fibrin within the bone marrow,day 90,appeared to reduce the amount of fibrin
same,Number of osteoblasts on the bone surface in areas of osteonecrosis,"epiphyses, day 90",increased the number of osteoblasts
same,Adipocyte density in the bone marrow,"vs dexamethasone alone, day 90",appeared to reduce
same,Cellularity of the bone marrow,"vs dexamethasone alone, day 90",maintained the cellularity of the bone marrow
same,Number of empty lacunae/pyknotic nuclei,"vs dexamethasone alone, day 90",appeared to reduce
same,Sinusoidal red blood cell volume,"vs dexamethasone alone, day 90",increased the sinusoidal red blood cell volume
